Patent publication US4273765A, “Amino sugar derivatives containing trehalose” (Hoffmann-La Roche Inc., priority 1978, dated 1981)

Legend:
[1] = tested on: hyperglycemia induced by cooked rice starch; test: Inhibition of hyperglycemia induced by cooked rice starch, mice; type: in vivo; details: p.o., dose causing after 20 minutes a 20 percent decrease of hyperglycemia, 2 g/kg cooked rice starch
Description: (§1) **ED20 is defined as the dose causing after 20 minutes a 20 percent
(§2) decrease of hyperglycemia induced by oral administration of 2 g/kg body
(§3) weight cooked rice starch.

E. coli CF17 = test: Antimicrobial spectrum, agar-dilution method; type: cell-based
[2] = tested on: hyperglycemia (hyperinsulinemia) following an oral load of native starch; test: Hyperglycemia (hyperinsulinemia) following an oral load of native starch; type: in vivo; details: 20 min. after wheat starch
Description: (§4) [Plasma Glucose and insulin 20 min. after carbohydrate ± Trestatin (1.
g wheat starch/kg or 3.2 g sucrose/kg)]

Titration (in water) = type: physicochemical
[3] = tested on: Mycobacterium smegmatis ATCC607; test: Antimicrobial spectrum, agar-dilution method; type: cell-based
[4] = tested on: Serratia marcescens IFO12648; test: Antimicrobial spectrum, agar-dilution method; type: cell-based
E. coli NIHJ SMf = test: Antimicrobial spectrum, agar-dilution method; type: cell-based
E. coli CF41 = test: Antimicrobial spectrum, agar-dilution method; type: cell-based
Shigella flexneri = test: Antimicrobial spectrum, agar-dilution method; type: cell-based
[5] = tested on: hyperglycemia following an oral load of sucrose; test: Hyperglycemia following an oral load of sucrose; type: in vivo; details: dose/kg 30.0 mg; 20 min. after 3.2 g sucrose/kg
Description: as §4
g wheat starch/kg or 3.2 g sucrose/kg)]

[6] = tested on: Proteus vulgaris OX19 ATCC6898; test: Antimicrobial spectrum, agar-dilution method; type: cell-based
Salmonella paratyphi B = details: agar-dilution
E. coli NIHJ STf = test: Antimicrobial spectrum, agar-dilution method; type: cell-based
Candida albicans Yu1200 = test: Antimicrobial spectrum, agar-dilution method; type: cell-based
[7] = tested on: Staphylococcus aureus MS3937; test: Antimicrobial spectrum, agar-dilution method; type: cell-based
[8] = tested on: Klebsiella pneumoniae PCI602; test: Antimicrobial spectrum, agar-dilution method; type: cell-based
Sarcina lutea ATCC 9341 = test: Antimicrobial spectrum, agar-dilution method; type: cell-based; details: Sarcina lutea ATCC 9341, agar-dilution
rats = test: Acute toxicity, oral, rats; details: 500 mg/kg administered to rats orally (65-700 times the effective dosage)
[9] = tested on: Bordetella bronchiseptica Aichi 202; test: Antimicrobial spectrum, agar-dilution method; type: cell-based; details: Bordetella bronchiseptica Aichi 202, agar-dilution
[10] = biological target: T1, porcine pancreatic α-amylase (Sus scrofa, UniProt P00690); test: Porcine pancreatic α-amylase inhibitory activity (Bernfeld assay); type: biochemical; details: IU = amount giving 50% inhibition of 2 units porcine pancreatic α-amylase, pH 6.9, 37° C.
T1 sequence (P00690 16-511): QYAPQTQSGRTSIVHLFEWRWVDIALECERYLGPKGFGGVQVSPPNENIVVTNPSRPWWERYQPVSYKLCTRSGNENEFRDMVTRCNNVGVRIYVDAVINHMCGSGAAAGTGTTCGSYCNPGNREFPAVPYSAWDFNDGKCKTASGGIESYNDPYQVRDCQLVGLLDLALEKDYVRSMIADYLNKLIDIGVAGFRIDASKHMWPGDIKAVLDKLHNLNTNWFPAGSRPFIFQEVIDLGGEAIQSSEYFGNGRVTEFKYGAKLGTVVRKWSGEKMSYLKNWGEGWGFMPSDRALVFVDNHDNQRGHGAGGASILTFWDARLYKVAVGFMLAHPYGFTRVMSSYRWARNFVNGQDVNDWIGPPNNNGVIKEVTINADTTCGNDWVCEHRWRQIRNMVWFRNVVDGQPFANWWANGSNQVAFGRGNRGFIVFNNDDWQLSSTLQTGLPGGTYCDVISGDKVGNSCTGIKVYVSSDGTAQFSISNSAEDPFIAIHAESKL
Description: 2 units* of porcine pancreatic α-amylase in 0.1 ml of 6.4 mM ammonium sulfate solution are added to 0.6 ml of 20 mM phosphate buffer (pH 6.9) containing 10 mM sodium chloride and different amounts of Trestatin. The mixture, after equilibration at 37° C. for 5 min. followed by the addition of 0.5 ml of 4% soluble starch solution, is incubated for 5 min. at 37° C. The reaction is terminated by the addition of 2 ml of dinitrosalicylic acid reagent prepared according to the method of P. Bernfeld. The mixture is heated on a boiling water bath for 5 min. and then diluted with 10 ml of water. Absorbance (A1) of the resulting colored solution is measured at 540 nm, and the inhibition of α-amylase activity can be calculated from the following equation: [formula] A0; absorbance without enzyme A2; absorbance without Trestatin
*1 unit of the α-amylase is the amount of enzyme which catalyzes under the above conditions without Trestatin the formation of reducing sugars equivalent to 1 μmol of maltose.
Each of said inhibitory activities was determined by the method mentioned above.

[11] = tested on: Bacillus subtilis PCI 219; test: Antimicrobial spectrum, agar-dilution method; type: cell-based; details: Bacillus subtilis PCI 219, agar-dilution
Proteus rettgeri = test: Antimicrobial spectrum, agar-dilution method; type: cell-based
[12] = tested on: Staphylococcus aureus Smith; test: Antimicrobial spectrum, agar-dilution method; type: cell-based
[13] = tested on: Pseudomonas aeruginosa P2; test: Antimicrobial spectrum, agar-dilution method; type: cell-based
[14] = tested on: Salmonella typhimurium IFO12529; test: Antimicrobial spectrum, agar-dilution method; type: cell-based
[15] = tested on: Staphylococcus aureus FDA209P; test: Antimicrobial spectrum, agar-dilution method; type: cell-based
E. coli K-12 ML1630 = test: Antimicrobial spectrum, agar-dilution method; type: cell-based; details: E. coli K-12 ML1630, agar-dilution
[16] = tested on: Pseudomonas aeruginosa IFO12689; test: Antimicrobial spectrum, agar-dilution method; type: cell-based
[17] = tested on: Staphylococcus aureus MS9261; test: Antimicrobial spectrum, agar-dilution method; type: cell-based
[18] = tested on: Pseudomonas aeruginosa A3; test: Antimicrobial spectrum, agar-dilution method; type: cell-based
Citrobacter = test: Antimicrobial spectrum, agar-dilution method; type: cell-based
Solubility in solvents = type: physicochemical
Description: (h) Solubility in solvents:

E. coli NIHJ = test: Antimicrobial spectrum, agar-dilution method; type: cell-based
[19] = tested on: hyperglycemia induced by cooked rice starch; test: Inhibition of hyperglycemia induced by cooked rice starch, rats; type: in vivo; details: p.o., dose causing after 20 minutes a 20 percent decrease of hyperglycemia, 2 g/kg cooked rice starch
Description: as §1, §2, §3

Compound: C[C@H]1O[C@H](O[C@@H]2[C@H](O)[C@H](O)[C@@H](O[C@@H]3[C@H](O)[C@@H](O)[C@@H](O[C@@H]4[C@H](O)[C@H](O)[C@@H](O[C@H]5O[C@@H](CO)[C@H](O)[C@H](O)[C@H]5O)O[C@@H]4CO)O[C@@H]3CO)O[C@H]2CO)[C@H](O)[C@@H](O)[C@@H]1N[C@H]1C=C(CO)[C@@H](O[C@H]2O[C@H](CO)[C@H](O[C@H]3O[C@H](C)[C@@H](N[C@H]4C=C(CO)[C@@H](O)[C@H](O)[C@H]4O)[C@H](O)[C@H]3O)[C@H](O)[C@H]2O)[C@H](O)[C@H]1O (stereo in doubt) [Trestatin A]
- ED20, inhibition of hyperglycemia induced by cooked rice starch [1]: 1.1 mg/kg
- Antimicrobial spectrum (E. coli CF17): > 100 µg/mL
- Plasma glucose, starch - load ([2]; dose/kg 0.3 mg): 68% of carbohydrate primed controls
- Plasma insulin, starch - load ([2]; dose/kg 0.3 mg): 66% of carbohydrate primed controls
- Plasma glucose, starch - load ([2]; dose/kg 1.0 mg): 56% of carbohydrate primed controls
- Plasma insulin, starch - load ([2]; dose/kg 1.0 mg): 42% of carbohydrate primed controls
- Plasma glucose, starch - load ([2]; dose/kg 3.0 mg): 55% of carbohydrate primed controls
- Plasma insulin, starch - load ([2]; dose/kg 3.0 mg): 42% of carbohydrate primed controls
- pKa' (Titration (in water)): 5.0
- Antimicrobial spectrum [3]: > 100 µg/mL
- Antimicrobial spectrum [4]: > 100 µg/mL
- Antimicrobial spectrum (E. coli NIHJ SMf): > 100 µg/mL
- Antimicrobial spectrum (E. coli CF41): > 100 µg/mL
- Antimicrobial spectrum (Shigella flexneri): > 100 µg/mL
- Plasma glucose, sucrose - load [5]: 84% of carbohydrate primed controls
- Antimicrobial spectrum [6]: > 100 µg/mL
- Antimicrobial spectrum (Salmonella paratyphi B): > 100 µg/mL
- Antimicrobial spectrum (E. coli NIHJ STf): > 100 µg/mL
- Antimicrobial spectrum (Candida albicans Yu1200): > 100 µg/mL
- Antimicrobial spectrum [7]: > 100 µg/mL
- Antimicrobial spectrum [8]: > 100 µg/mL
- Antimicrobial spectrum (Sarcina lutea ATCC 9341): > 100 µg/mL
- Acute toxicity (rats): not observed
- Antimicrobial spectrum [9]: > 100 µg/mL
- Inhibitory activities [10]: 7.1 × 10^7 IU/g
- Antimicrobial spectrum [11]: > 100 µg/mL
- Antimicrobial spectrum (Proteus rettgeri): > 100 µg/mL
- Antimicrobial spectrum [12]: > 100 µg/mL
- Antimicrobial spectrum [13]: > 100 µg/mL
- Antimicrobial spectrum [14]: > 100 µg/mL
- Antimicrobial spectrum [15]: > 100 µg/mL
- Antimicrobial spectrum (E. coli K-12 ML1630): > 100 µg/mL
- Antimicrobial spectrum [16]: > 100 µg/mL
- Antimicrobial spectrum [17]: > 100 µg/mL
- Antimicrobial spectrum [18]: > 100 µg/mL
- Antimicrobial spectrum (Citrobacter): > 100 µg/mL
- Solubility in acetone (Solubility in solvents; acetone): slightly soluble
- Solubility in chloroform (Solubility in solvents; chloroform): insoluble
- Solubility in dimethylsulfoxide (Solubility in solvents; dimethylsulfoxide): soluble
- Solubility in ethanol (Solubility in solvents; ethanol): slightly soluble
- Solubility in ethyl acetate (Solubility in solvents; ethyl acetate): insoluble
- Solubility in water (Solubility in solvents; water): easily soluble
- Antimicrobial spectrum (E. coli NIHJ): > 100 µg/mL
- ED20, inhibition of hyperglycemia induced by cooked rice starch [19]: 1.0 mg/kg
